{"source": "patent US6407085B1", "about": "“Medicament containing betasitosterol and/or phytosterol/betasitosterol mixtures” (priority 1997, dated 2002)", "key": {"[1]": {"assay": "dissolving in oils, paraffins, stearates, Vaseline or glycerin with heat", "assay_type": "physicochemical", "details": "for appearance in glycerin after cooling: after heating in glycerin; for appearance in oil after cooling: after heating in oil", "description": "The solubility of phytosterol/betasitosterol mixtures and betasitosterol metabolites can be accelerated and improved with respect to yield if the effective ingredients are treated in oil, paraffins, stearates, or Vaseline with the application of heat at temperatures of around 70° C. to 160° C., advantageously at 120° C. to 140° C., advantageously over a period of 30 minutes to 3 hours.\nIf betasitosterol or sodium desoxycholate is heated in diverse natural and mineral oils, paraffins, commercially-available hypoallergenic stearate mixtures, or Vaseline (2 g substance in 100 ml) to 120° C., both substances dissolve fully within 90 minutes. Upon further heating to 150° C. (at 140° C., betasitosterol becomes liquid), betasitosterol dissolves up to around 15% in stearate mixtures, paraffins, and plant and mineral oils. […] In like manner, betasitosterol and sodium desoxycholate can be introduced into glycerin."}, "psoriasis": {"tested_on": "psoriasis", "assay": "salve applied to the skin in psoriasis", "assay_type": "in vivo", "description": "If phytosterol/betasitosterol mixtures, when they are dissolved in the above described form in oil, are stirred into a salve base alone or in a mixture with sodium desoxycholate in aqueous solution in a concentration of 0.5 to 2.0% and the salve base is applied to the skin, the itching of neurodermatitis usually is eased after only 2 to 5 minutes. Inflammation processes with redness and swelling are alleviated after 24 to 48 hours. Thus a histamine antagonistic as well as a cortisone-like effect is determined, but without the side effects of the hormone. In the case of psoriasis, the formation of scales is often reduced even in extreme cases only 24 hours after the first application, particularly with the use of the metabolite desoxycholic acid. Here again the use of such substances is completely unproblematic in contrast to a salve with a component of vitamin-D-like structure, which as a result of the resorption of the vitamin-D-like molecule can be applied only to a limited extent because of the danger of overdosing and thus the influencing of calcium metabolism."}, "[2]": {"assay": "oral tolerability of betasitosterol esters", "assay_type": "in vivo", "details": "taken orally"}, "[3]": {"assay": "solubility in oils, chloroform and water at room temperature"}, "[4]": {"details": "chloroform; cited from earlier work"}, "[5]": {"details": "cited from earlier work"}, "[6]": {"details": "in vivo; cited from earlier work"}}}
{"molecule": "desoxycholic acid", "values": [{"measurement": "appearance in glycerin after cooling", "setting": "[1]", "result": "white pasty mass"}, {"measurement": "appearance with safflower oil", "setting": "[1]; heated to 120° C.", "result": "cloudy-opalescent emulsion"}, {"measurement": "time after first application until formation of scales is reduced", "setting": "psoriasis", "result": 24, "unit": "h"}]}
{"molecule": "CC[C@H](CC[C@@H](C)[C@H]1CC[C@H]2[C@@H]3CC=C4C[C@@H](OC(=O)[C@H](O)[C@@H](O)[C@H](O)[C@H](O)CO)CC[C@]4(C)[C@H]3CC[C@]12C)C(C)C", "note": "[betasitosterol gluconic acid ester]", "values": [{"measurement": "tolerability", "setting": "[2]", "result": "free of side effects and very well tolerated"}]}
{"molecule": "sodium desoxycholate", "values": [{"measurement": "appearance in glycerin after cooling", "setting": "[1]", "result": "remains clear"}, {"measurement": "appearance in oil after cooling", "setting": "[1]", "result": "remains clear"}, {"measurement": "dissolving in glycerin", "setting": "[1]; heated to 120° C.", "result": "dissolve completely clear"}, {"measurement": "water solubility", "setting": "[3]", "result": "relatively water soluble"}]}
{"molecule": "CC[C@H](CC[C@@H](C)[C@H]1CC[C@H]2[C@@H]3CC=C4C[C@@H](O)CC[C@]4(C)[C@H]3CC[C@]12C)C(C)C", "note": "[betasitosterol]", "values": [{"measurement": "appearance in glycerin after cooling", "setting": "[1]", "result": "slightly opalescent"}, {"measurement": "appearance in oil after cooling", "setting": "[1]", "result": "slightly opalescent"}, {"measurement": "dissolving in glycerin", "setting": "[1]; heated to 120° C.", "result": "dissolve completely clear"}, {"measurement": "amount dissolved", "setting": "[1]; heating to 150° C., stearate mixtures, paraffins, plant and mineral oils", "result": "around 15%"}, {"measurement": "solubility in oil on addition of sodium desoxycholate", "setting": "[3]", "result": "further improved"}, {"measurement": "solubility in oil at room temperature", "setting": "[3]; linseed oil, safflower oil, neutral oil, standing longer than 24 h at room temperature", "result": "dissolves in sufficient quantity"}, {"measurement": "solubility (D'ans-Lax)", "setting": "[4]", "result": "soluble in chloroform"}, {"measurement": "resorption quotient", "setting": "[5]; healthy subjects", "result": "around 5%"}, {"measurement": "blood count", "setting": "[5]; oral administration of up to 24 g per day", "result": 10, "unit": "mg"}, {"measurement": "portion metabolized into cholic acid and chenodesoxycholic acid", "setting": "[6]", "result": "around 20%"}]}
